# Key:
# Assay type in all cases: physicochemical
# [1] = Absorption spectrum in ethyl acetate solution (spectrophotometer UV-2400PC)
# Protocol: In consideration of film thickness, the molar absorption coefficient of the specific metal complex compounds-1, -2, -3 and -4 of the invention is preferably as high as possible, and 60,000 or higher is preferable. The maximum absorption wavelength (λmax) thereof is preferably from 520 nm to 580 nm, and more preferably from 530 nm to 570 nm, in order to improve color purity. The maximum absorption wavelength and the molar absorption coefficient are determined by using a spectrophotometer UV-2400PC (manufactured by Shimadzu Corporation).
# The molar absorption coefficient (ε) of each of the obtained compounds was measured in an ethyl acetate solution using a spectrophotometer (trade name: UV-2400PC; manufactured by Shimadzu Corporation). The absorbance (Abs) at 450 nm was evaluated by normalizing the absorbance at a maximum absorption wavelength (λmax) to 1.0. […] The measurement results of the absorbance (Abs value), maximum absorption wavelength (λmax), and molar absorption coefficient (ε) are shown in Table 1.
# By the method similar to the reaction scheme in Synthesis Example 1 above, the exemplary compounds (dipyrromethene metal complex compounds or tautomers thereof) shown in Table 1 were synthesized. The identification of the compounds and the measurement of the maximum absorption wavelength (λmax) and the molar absorption coefficient (ε) of the compounds were performed similarly to Synthesis Example 1 above.
# [2] = Storage stability of colored resist solution (precipitation after one month at room temperature); parameters: key: A: No precipitation was observed; B: Slight precipitation was observed; C: Precipitation was observed; settings: negative-working colored resist solution, visual precipitation
# Text: 9.4 g of the resist solution obtained in section 1 above and 0.35 g of the exemplary compound Ia-12 synthesized above (a compound represented by Formula (4): dipyrromethene complex compound) were mixed and dissolved, whereby a colored resist solution (a negative-working ultraviolet-sensitive colored curable composition) was obtained.
# The colored resist solution was stored for one month at room temperature, and then degree of precipitation was visually observed. The storage stability was evaluated according to the following criteria.
# A: No precipitation was observed
# B: Slight precipitation was observed
# C: Precipitation was observed
# [3] = Transmittance at 450 nm of the color filter; settings: negative-working colored resist, 1.0 μm film; transmittance at λmax normalized to 2%
# Protocol: The colored resist solution obtained in section 3 above was applied to an undercoat layer side of the glass substrate having an undercoat layer obtained in section 2 above by a spin coater such that a film thickness was 1.0 μm. Subsequently, the film was pre-baked at 100° C. for 120 sec, whereby a monochromatic color filter was obtained.
# The transmission spectrum of the color filter obtained above was measured, and the transmittance at 450 nm was evaluated according to the following criteria. The transmittance of the color filter at 450 nm was evaluated by correcting (normalizing) the transmittance at the maximum absorption wavelength of the colorant included in the color filter to 2%. A larger transmittance indicates greater transmission of blue light, which indicates favorable magenta or violet color that can be used in a blue filter.
# A: Transmittance at 450 nm was 90% or more
# B: Transmittance at 450 nm was 80% or more but not more than 90%
# C: Transmittance at 450 nm was not more than 80%
# [4] = Heat resistance of coating film (color difference ΔEab before and after heating); settings: 100° C. for 1 hour on hot plate
# Protocol: A glass substrate having undercoat layer formed by applying the colored resin composition obtained in section 3 above was heat-treated at 100° C. for 1 hour using a hot plate, and the color difference (ΔEab) between before and after the heating was determined by using a […] MCPD-1000 (trade name, manufactured by Otsuka Electronics Co., Ltd.). The heat resistance was evaluated according to the following criteria. A smaller AEab value indicates better heat resistance.
# (§1) A: ΔEab value was less than 6
# (§2) B: ΔEab value was from 6 to 10
# (§3) C: ΔEab value was more than 10
# [5] = Light-fastness of coating film (color difference ΔEab before and after xenon lamp irradiation); settings: xenon lamp 20,000 luxes for 10 hours (200,000 lux·h)
# Protocol: A glass substrate having undercoat layer formed by applying the colored resin composition obtained in section 3 above was irradiated with a xenon lamp at an intensity of 20,000 luxes for 10 hours (equivalent to 200,000 lux·h), and the color difference ΔEab between before and after the irradiation was determined. The light-fastness was evaluated according to the following criteria. A smaller ΔEab value indicates better light-fastness.
# as §1, §2, §3
SMILES,maximum absorption wavelength (λmax) [1] [nm],molar absorption coefficient (ε) [1],Abs value at 450 nm when normalized to Abs = 1.0 at λmax [1],Storage stability [2],Transmittance at 450 nm [3],Heat resistance [4],Light-fastness [5]
CC1CC(C(C)(C)C)C(OC(=O)C2=C(c3ccccc3)C3=Cc4c(-c5ccccc5)c(C(=O)OC5C(C(C)(C)C)CC(C)CC5C(C)(C)C)c(NC(=O)c5ccc(F)c(Br)c5)[n]4[Zn-]([OH])[N+]3=C2NC(=O)c2ccc(F)c(Br)c2)C(C(C)(C)C)C1 (stereo not drawn) [IIb-24],564,"100,900",0.091,B,A (Transmittance at 450 nm was 90% or more),A (ΔEab value was less than 6),A (ΔEab value was less than 6)
Cc1c(C(=O)OC2C(C(C)(C)C)CC(C)CC2C(C)(C)C)c(NC(=O)c2cccc(C(F)(F)F)c2)[n]([Zn][OH])c1C=C1N=C(NC(=O)C(C)(C)C)C(C#N)=C1c1ccccc1 (stereo not drawn) [Ia-14],560,"87,600",0.0112,A,A (Transmittance at 450 nm was 90% or more),A (ΔEab value was less than 6),A (ΔEab value was less than 6)
Cc1c(C(=O)OC2C(C(C)(C)C)CC(C)CC2C(C)(C)C)c(NC(=O)c2cccc(C(F)(F)F)c2)[n]2c1C=C1C(c3ccccc3)=C(C#N)C(NC(=O)C(C)Sc3cc(C(=O)O)cc(C(=O)O)c3)=[N+]1[Zn-]2[OH] (stereo not drawn) [Ia-15],558,"91,000",0.091,A,A (Transmittance at 450 nm was 90% or more),A (ΔEab value was less than 6),A (ΔEab value was less than 6)
CC1CC(C(C)(C)C)C(OC(=O)c2c(-c3ccccc3)c3[n](c2NC(=O)c2cccc(C(F)(F)F)c2)[Zn-]([OH])[N+]2=C(NC(=O)C(C)Sc4cc(C(=O)O)cc(C(=O)O)c4)C(C#N)=C(c4ccccc4)C2=C3)C(C(C)(C)C)C1 (stereo not drawn) [Ib-15],562,"87,100",0.0089,A,A (Transmittance at 450 nm was 90% or more),A (ΔEab value was less than 6),A (ΔEab value was less than 6)
CC1CC(C(C)(C)C)C(OC(=O)C2=C(c3ccccc3)C3=Cc4c(-c5ccccc5)c(C(=O)OC5C(C(C)(C)C)CC(C)CC5C(C)(C)C)c(NC(=O)c5ccc(F)c(F)c5)[n]4[Zn-]([OH])[N+]3=C2NC(=O)c2ccc(F)c(F)c2)C(C(C)(C)C)C1 (stereo not drawn) [IIb-13],560,"106,300",0.0107,A,A (Transmittance at 450 nm was 90% or more),A (ΔEab value was less than 6),A (ΔEab value was less than 6)
CC1CC(C(C)(C)C)C(OC(=O)C2=C(c3ccccc3)C3=Cc4c(-c5ccccc5)c(C(=O)OC5C(C(C)(C)C)CC(C)CC5C(C)(C)C)c(NC(=O)c5cccc(C(F)(F)F)c5)[n]4[Zn-]([OH])[N+]3=C2NC(=O)c2cccc(C(F)(F)F)c2)C(C(C)(C)C)C1 (stereo not drawn) [IIb-6],560,"114,000",0.0079,A,A (Transmittance at 450 nm was 90% or more),A (ΔEab value was less than 6),A (ΔEab value was less than 6)
CC1CC(C(C)(C)C)C(OC(=O)C2=C(c3ccccc3)C3=Cc4c(-c5ccccc5)c(C(=O)OC5C(C(C)(C)C)CC(C)CC5C(C)(C)C)c(NC(=O)c5c(F)c(F)c(F)c(F)c5F)[n]4[Zn-]([OH])[N+]3=C2NC(=O)c2c(F)c(F)c(F)c(F)c2F)C(C(C)(C)C)C1 (stereo not drawn) [IIb-40],562,"107,300",0.0087,A,A (Transmittance at 450 nm was 90% or more),A (ΔEab value was less than 6),A (ΔEab value was less than 6)
CC1CC(C(C)(C)C)C(OC(=O)c2c(-c3ccccc3)c3[n](c2NC(=O)c2c(F)c(F)c(F)c(F)c2F)[Zn-]([OH])[N+]2=C(NC(=O)C(C)Sc4cc(C(=O)O)cc(C(=O)O)c4)C(C#N)=C(c4ccccc4)C2=C3)C(C(C)(C)C)C1 (stereo not drawn) [Ib-75],564,"106,400",0.0099,A,A (Transmittance at 450 nm was 90% or more),A (ΔEab value was less than 6),A (ΔEab value was less than 6)
Cc1c(C(=O)OC2C(C(C)(C)C)CC(C)CC2C(C)(C)C)c(NC(=O)c2ccccc2C(F)(F)F)[n]2c1C=C1C(c3ccccc3)=C(C#N)C(NC(=O)C(C)Sc3cc(C(=O)O)cc(C(=O)O)c3)=[N+]1[Zn-]2[OH] (stereo not drawn) [Ia-12],560,"81,400",0.0154,A,A (Transmittance at 450 nm was 90% or more),A (ΔEab value was less than 6),A (ΔEab value was less than 6)
Cc1c(C(=O)OC2C(C(C)(C)C)CC(C)CC2C(C)(C)C)c(NC(=O)c2ccc(C(F)(F)F)cc2)[n]2c1C=C1C(c3ccccc3)=C(C#N)C(NC(=O)C(C)Sc3cc(C(=O)O)cc(C(=O)O)c3)=[N+]1[Zn-]2[OH] (stereo not drawn) [Ia-23],558,"83,200",0.0099,A,A (Transmittance at 450 nm was 90% or more),A (ΔEab value was less than 6),A (ΔEab value was less than 6)
CC1=C(C(=O)OC2C(C(C)(C)C)CC(C)CC2C(C)(C)C)C(NC(=O)c2cc(C(F)(F)F)cc(C(F)(F)F)c2)=[N+]2C1=Cc1c(C)c(C(=O)OC3C(C(C)(C)C)CC(C)CC3C(C)(C)C)c(NC(=O)c3cc(C(F)(F)F)cc(C(F)(F)F)c3)[n]1[Zn-]2[OH] (stereo not drawn) [IIa-14],551,"100,100",0.0114,A,A (Transmittance at 450 nm was 90% or more),A (ΔEab value was less than 6),A (ΔEab value was less than 6)
CC1CC(C(C)(C)C)C(OC(=O)c2c(-c3ccccc3)c3[n](c2NC(=O)c2cc(C(F)(F)F)cc(C(F)(F)F)c2)[Zn-]([OH])[N+]2=C(NC(=O)C(C)Sc4cc(C(=O)O)cc(C(=O)O)c4)C(C#N)=C(c4ccccc4)C2=C3)C(C(C)(C)C)C1 (stereo not drawn) [Ib-41],562,"76,500",0.0195,A,A (Transmittance at 450 nm was 90% or more),A (ΔEab value was less than 6),A (ΔEab value was less than 6)
